Entries after “also recorded” stand apart in the source; their conditions may differ. Read-outs that look alike come from different tables or passages of the source.
Experiments:
[1] = test system: soleus muscle from the Nav1.4-R669H mouse; type: cell-based
Method: (§1) Mouse Model of HypoPP. Knock-in mutant mouse models of HypoPP were previously generated; Type 1 with a missense mutation of the Cav1.1 calcium channel (Cacnals p.R528H) and Type 2 with a missense mutation of the Nav1.4 sodium channel (Scn4a p.R663H) homologous to the p.R669H missense mutation in patients with HypoPP Type 2. Mutant mice have a robust HypoPP phenotype with loss of force and paradoxical depolarization of skeletal muscle in response to a challenge in low extracellular [K^+] (<3 mM) or to intravenous administration of insulin plus glucose.
Ex vivo Contraction Studies. The outcome measure for susceptibility to HypoPP was the peak isometric force of the soleus muscle, in response to a tetanic stimulation, as previously described. In brief, after euthanizing the animal, the extensor digitorum longus (EDL) muscle or the soleus muscle was dissected free and suspended in a tissue bath held at 37° C. […] Muscles were suspended in a bicarbonate-buffered bath that was bubbled continuously with 5% CO2/95% 02 to maintain a pH of 7.4. The standard bath consisted of (in mM): 118 NaCl, 4.75 KCl, 1.18 MgSO4, 2.54 CaCl2), 1.18 NaH2PO4, 10 glucose, and 24.8 NaHCO3. The low-K^+ solution was identical, except for the reduction of KCl to 2 mM by replacement with NaCl. The osmolality of all solutions was 290 mOsm. Retigabine (gift from Prof. M. Taglialatela, Univ. […] The Kv7 inhibitor, XE991 (Sigma-Aldrich), was prepared in as a 100 mM DMSO stock solution and applied to muscle in a […] bath solution.
Electrical stimulation was applied by a pair of platinum wires, oriented perpendicular to the long axis of the soleus muscle. Suprathreshold stimulation (80 mA) was applied as a tetanic burst (40 pulses, 0.4 msec, at 100 Hz), under computer control. All bath solutions contained 0.25 mM D-tubocurarine (Sigma-Aldrich) to prevent any contribution to muscle excitation from motor nerve endings. Muscle force was measured with a stiff strain gain (Forte 25, World Precision Instruments) and digitally sampled at 5 KHz. Muscle contractility was monitored by measuring the peak isometric force every two minutes, and test solutions were applied by complete exchange of the bath solution.
The efficacy of potassium channel openers to prevent the loss of force in HypoPP muscle was assessed by measuring isometric contractions, ex vivo, in both control (4.7 mM) and low extracellular [K^+] (2.0 mM). The HypoPP phenotype is shown for the drug-free responses of the soleus muscle from an Nav1.4-R669H mouse in the left panel of FIG. 1A. The peak isometric force during the tetanic contraction (100 Hz stimulation) was initially 11.7 gm in control [K^+], and then decreased to 7.6 gm (35% decrease) after 4 min. in 2 mM [K^+]. The loss of force is reversible, upon return to 4.7 mM [K^+] (e.g., see FIG. 1B).
A method to quantify the extent of protection from loss of force by retigabine is illustrated in FIG. 2. This example was selected to illustrate the maximum variability in the extent of protection for the oscillations of soleus muscle force within a single trial (compare the responses at 24 min to those at 40 min.). […] The relative protection was calculated from the responses for each pair of soleus muscles from the same mouse serving as an internal control. In almost every trial (22 out of 24), two clear minima occurred during the 30 min. low-K^+ challenge. The relative protection for the retigabine response, defined as 1−(force loss in retigabine)/(force loss in control) was calculated for each of the two minima, and the average value was used as the quantitative estimate for the retigabine protection in that trial. Each soleus muscle was used for only a single trial (i.e. control or retigabine) because cumulative effects and run-down may occur if this long protocol (typically 70 min.) was repeated.

rat = conditions: 30 mg/kg retigabine; cited from earlier work
[2] = test system: EDL fibers from the Nav1.4-R669H mouse; test: Membrane potential measurements (resting potential, microelectrode impalement); type: cell-based
Method: Membrane Potential Measurements. The membrane potential was recorded by impalement of superficial fibers from an ex vivo whole mount of the EDL muscle. Long-duration stable recording of the resting potential was achieved by using an orthogonal approach to the fiber with fine-tipped microelectrodes (resistance of 15-20 MW, filled with 3 M KCl). The bath solution was the same as that used for the ex vivo contraction studies, continuously bubbled with 5% CO2/95% O2, with a flow rate of ˜3 ml/min of the 0.3 ml recording chamber.
The impairment of contraction during an episode of HypoPP is caused by sustained depolarization, which inactivates sodium channels and reduces muscle fiber excitability. In HypoPP, ictal depolarization of the resting potential (Vrest) paradoxically occurs in low K^+ that would normally hyperpolarize the membrane from a negative shift of the K^+ Nernst potential (EK). It was tested whether retigabine prevents or reverses this paradoxical depolarization of HypoPP fibers exposed to low K^+. […] Reduction of K^+ to 2 mM or even 1 mM caused hyperpolarization of WT fibers, as expected from the negative shift of EK (FIG. 5A, gray shaded regions). At an extremely low K^+ of 0.5 mM, even WT fibers paradoxically depolarized (magenta region) as previously described. For EDL fibers from the Nav1.4-R669H mouse, the more modest K^+ reductions to 2 mM or 1 mM elicited paradoxical depolarization, which is the membrane potential equivalent of ictal HypoPP. […] These observations support the view that the beneficial effects of retigabine occur by a stabilizing effect on the normally polarized value of Vrest.

[3] = test system: EDL muscle from the Cav1.1-R528H mouse; test: Ex vivo contraction test, low-K+ challenge, HypoPP EDL muscle; type: cell-based
Method: as §1
Ex vivo Contraction Studies. The outcome measure for susceptibility to HypoPP was the peak isometric force of the soleus muscle, in response to a tetanic stimulation, as previously described. In brief, after euthanizing the animal, the extensor digitorum longus (EDL) muscle or the soleus muscle was dissected free and suspended in a tissue bath held at 37° C. […] Muscles were suspended in a bicarbonate-buffered bath that was bubbled continuously with 5% CO2/95% 02 to maintain a pH of 7.4. The standard bath consisted of (in mM): 118 NaCl, 4.75 KCl, 1.18 MgSO4, 2.54 CaCl2), 1.18 NaH2PO4, 10 glucose, and 24.8 NaHCO3. […]
Electrical stimulation was applied by a pair of platinum wires, oriented perpendicular to the long axis of the soleus muscle. […] Muscle force was measured with a stiff strain gain (Forte 25, World Precision Instruments) and digitally sampled at 5 KHz. Muscle contractility was monitored by measuring the peak isometric force every two minutes, and test solutions were applied by complete exchange of the bath solution.
A method to quantify the extent of protection from loss of force by retigabine is illustrated in FIG. 2. […] The relative protection was calculated from the responses for each pair of soleus muscles from the same mouse serving as an internal control. […] The relative protection for the retigabine response, defined as 1−(force loss in retigabine)/(force loss in control) was calculated for each of the two minima, and the average value was used as the quantitative estimate for the retigabine protection in that trial. […]

[4] = test system: pharmacological model of Andersen-Tawil Syndrome (barium blocks Kir potassium channels); test: Low K challenge in pharmacological model of Andersen-Tawil Syndrome (50 μM barium); type: cell-based; conditions: pre-administration of 10 μM retigabine
Method: A pharmacological model of Andersen-Tawil Syndrome (ATS) is created, in vitro, with a low concentration of barium (50 μM), which blocks Kir potassium channels. Kir2.1 is deficient from loss of function mutations of the KCNJ2 gene in ATS.

[5] = cited from earlier work
mouse = conditions: 30 mg/kg retigabine; cited from earlier work
[6] = test system: soleus muscle obtained from the knock-in mutant mouse model of HyperPP; test: In vitro contraction test, high K challenge, HyperPP soleus muscle; type: cell-based
Method: The two paired muscles (left and right) were tested in separate organ baths. […] At 40 min into the study, a high K challenge was performed by exchanging the 4.7 mM K+ bath with one containing 10 mM K+.

[7] = test system: mouse muscle (mouse models of myotonia); conditions: cited from earlier work
[8] = chronic use as antiepileptic, cited from earlier work
Kv7.1 = Kv7.1 (Homo sapiens, UniProt P51787); conditions: cited from earlier work
Sequence of Kv7.1 (P51787 whole entry): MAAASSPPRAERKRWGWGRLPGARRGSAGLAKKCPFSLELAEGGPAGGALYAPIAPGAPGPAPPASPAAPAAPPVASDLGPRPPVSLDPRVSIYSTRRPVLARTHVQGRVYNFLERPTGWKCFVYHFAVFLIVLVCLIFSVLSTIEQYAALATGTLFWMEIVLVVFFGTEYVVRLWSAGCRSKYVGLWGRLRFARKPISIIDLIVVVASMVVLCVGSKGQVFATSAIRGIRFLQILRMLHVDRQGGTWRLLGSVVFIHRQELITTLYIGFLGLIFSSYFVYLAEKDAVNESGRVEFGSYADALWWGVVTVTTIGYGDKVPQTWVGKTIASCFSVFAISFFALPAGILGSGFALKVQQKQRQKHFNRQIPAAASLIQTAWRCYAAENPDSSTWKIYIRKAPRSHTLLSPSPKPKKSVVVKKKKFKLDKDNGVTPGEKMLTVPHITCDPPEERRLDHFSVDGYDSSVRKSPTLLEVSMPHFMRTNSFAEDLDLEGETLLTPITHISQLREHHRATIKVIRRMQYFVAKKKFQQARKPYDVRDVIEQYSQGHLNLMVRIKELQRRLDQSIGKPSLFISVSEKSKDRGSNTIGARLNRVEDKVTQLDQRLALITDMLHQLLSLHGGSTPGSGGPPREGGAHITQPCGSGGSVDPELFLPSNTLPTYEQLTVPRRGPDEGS

human HypoPP muscle = conditions: 100 mM pinacidil; cited from earlier work

Question: For `Cc1cc(N2CCc3cc(F)ccc3C2)cc(C)c1NC(=O)CC(C)(C)C` [XEN1101, N-[4-(6-fluoro-3,4-dihydro-1H-isoquinolin-2-yl)-2,6-dimethylphenyl]-3,3-dimethylbutanamide], which “increase in baseline force” value ([1]; XEN1101 10 μM at 10 min) is on record?
Answer: 20%

Question: Which “force with tetanic contractions lasting seconds” value (rat) does the source give for `CCOC(=O)Nc1ccc(NCc2ccc(F)cc2)cc1N` [retigabine, ethyl [2-amino-4-[[(4-fluorophenyl)methyl]amino]phenyl]carbamate] here?
Answer: loss of force

Question: And the “Vrest of normally polarized muscle fibers” value ([2]; 4.7 K+, retigabine added)?
Answer: does not affect Vrest

Question: What about the “resting potential of paradoxically depolarized HypoPP fibers (rescue)” value ([2]; retigabine added while low K+ unchanged) of the same compound?
Answer: repolarized to the normal Vrest; also recorded: induced fiber repolarization

Question: What about the “paradoxical depolarization of HypoPP fibers during low K+ challenge (protection)” value ([2]; retigabine applied before low K+ (1.0 or 2.0 mM)) of the same compound?
Answer: prevented the paradoxical depolarization

Question: What about the “relative peak force, sustained value after recovery” value ([3]; 10 μM retigabine in 2 mM K+, EDL) of the same compound?
Answer: 0.83

Question: What about the “recovery from on-going loss of force in low K+” value ([3]; 10 μM retigabine, vs contralateral control) of the same compound?
Answer: Rescue; also recorded: induced a recovery of relative peak force

Question: What about the “relative force before the low-K+ challenge on addition of retigabine” value ([3]; 0.1 to 20 mM, Cav1.1-R528H EDL) of the same compound?
Answer: not affected

Question: What about the “prevention of loss of muscle force with a low K challenge (2 mM)” value [4] of the same compound?
Answer: effective a preventing the loss of muscle force

Question: And the “protein binding (assumed)” value ([5]; assumption for unbound fraction)?
Answer: 80%

Question: What about the Cmax ([5]; single 100 mg oral dose) of the same compound?
Answer: 390 ng/mL

Question: What about the half-life ([5]; single 100 mg oral dose) of the same compound?
Answer: 8 h

Question: And the “force with tetanic contractions lasting seconds” value (mouse)?
Answer: loss of force

Question: What about the “attenuation of the loss of force” value ([6]; 10 μM retigabine pre-treatment, 10 mM K+ challenge) of the same compound?
Answer: about 50%

Question: And the “maximal force after retigabine before challenge (relative)” value ([6]; 10 μM retigabine, 4.7 mM K+)?
Answer: about 1.0

Question: And the “prevention of loss of force in HyperPP model” value ([6]; retigabine (10 μM))?
Answer: partially effective

Question: And the “recovery of force on return of bath K+ to 4.7 mM” value ([6]; retigabine exposed muscle)?
Answer: full recovery of force

Question: And the “protection from low-K+ induced loss of force” value ([1]; 1 μM retigabine pre-treatment)?
Answer: substantial protection

Question: What about the “loss of peak force during 30 min challenge with 2 mM K+” value ([1]; 2 μM retigabine pre-treatment) of the same compound?
Answer: markedly attenuated the loss of peak force

Question: And the “trials with enhanced recovery” value ([1]; 10 μM retigabine applied during 2 mM K+)?
Answer: 5 of 6

Question: What about the “relative peak force, sustained value after recovery” value ([1]; 10 μM retigabine in 2 mM K+, soleus) of the same compound?
Answer: 0.83

Question: And the “protection from low-K+ induced loss of force” value ([1]; 10 μM retigabine pre-treatment, K+ 4.7 mM to 2 mM)?
Answer: completely suppressed any detectable loss of force

Question: And the “relative force in the 2 mM [K+] challenge” value ([1]; 10 μM retigabine pre-treatment, representative responses FIG. 1B)?
Answer: > 0.85

Question: What about the “improved level of tetanic force in retigabine, of baseline” value ([1]; 10 μM retigabine, still in 2 mM K+ bath, n=3) of the same compound?
Answer: 83.2%

Question: And the “relative force before the low-K+ challenge on addition of retigabine” value ([1]; 0.1 to 20 mM, Nav1.4-R669H soleus)?
Answer: not affected

Question: And the “baseline force in 4.7 mM K+” value ([1]; bath containing 10 μM retigabine)?
Answer: unchanged

Question: What about the “impairment of peak isometric force” value ([1]; up to 20 μM retigabine, 400 msec tetanic contraction every two minutes for two hrs) of the same compound?
Answer: no impairment

Question: What about the “fiber input resistance, resting potential or action potential properties (current-clamp)” value ([7]; 20 mM retigabine) of the same compound?
Answer: did not detect a change

Question: And the “reduction of ex vivo tetanic force” value ([7]; 20 or 30 mM retigabine)?
Answer: did not report a reduction

Question: What about the “after-discharges in mouse models of myotonia” value ([7]; low-dose retigabine) of the same compound?
Answer: suppresses after-discharges

Question: What about the “side effects leading to discontinuation” value [8] of the same compound?
Answer: skin discoloration

Question: What about the “side effects leading to discontinuation” value ([8]; listed as Retigabine) of the same compound?
Answer: skin discoloration and eye abnormalities

Question: And the “sensitivity of Kv7.1 to retigabine relative to Kv7.2-Kv7.5 (fold less sensitive)” value (Kv7.1)?
Answer: 100 fold

Question: With `CC(N/C(=N\C#N)Nc1ccncc1)C(C)(C)C` (centres unmarked) [pinacidil] as the compound, how does the “protection against loss of force” value (human HypoPP muscle) read?
Answer: protect against loss of force

Question: And the “protection from loss of force in a low-K+ challenge” value ([1]; pinacidil pre-treatment)?
Answer: protects HypoPP muscle from a loss of force

— patent US20240226054A9, “AGENTS AND METHODS FOR PREVENTING AND TREATING SKELETAL MUSCLE DISEASES” (The Regents Of the University of California, priority 2022, published 2024)
